From US11447460B2, “Compounds and compositions for treating conditions associated with NLRP activity” (Novartis AG, priority 2016, dated 2022)

Test system: IL-1β production in PMA-differentiated THP-1 cells
Test: IL-1β production in PMA-differentiated THP-1 cells stimulated with gramicidin (hTHP-1 assay, 2% bovine serum; Bioassays 1 and 2)
Assay type: cell-based, human
Conditions: Homo sapiens, THP-1; hTHP-1 assay containing 2% bovine serum; Table 12, by Example #; read-out: Average IC50 of compounds in hTHP-1 assay
Procedure: IL-1β Production in PMA-Differentiated THP-1 Cells Stimulated with Gramicidin.
Cell culture-THP-1 cells were purchased from the American Type Culture Collection and sub-cultured according to instructions from the supplier. Prior to experiments, cells were cultured in RPMI 1640 containing 10% heat inactivated FBS, penicillin (100 units/ml) and streptomycin (100 μg/ml), and maintained in log phase prior to experimental setup. Prior to the experiment THP-1 were treated with PMA (Phorbol 12-myristate 13-acetate) (10 μg/ml) for 24 hours. The day of the experiment the media was removed and attaching cells were treated with trypsin for 2 minutes, cells were then collected, washed with PBS (phosphate buffer saline), spin down, resuspended in 2% heat inactivated FBS with RPMI at a concentration of 1×10^6 cells/ml, and 100 ul was plated in a 96 well plate. Cells were incubated with compounds for 1 hours and then stimulated with Gramicidin (5 μM) (Enzo) for 2 hours. Cell free supernatant was collected and the production of IL-1β was evaluated by ELISA. Compounds were dissolved in dimethyl sulfoxide (DMSO) and added to the culture medium to achieve desired concentration (e.g. 100, 30, 10, 3, 1, 0.3 or 0.1 μM). A vehicle only control was run concurrently with each experiment. Final DMSO concentration was 1%.
THP-1 cells were purchased from the American Type Culture Collection and sub-cultured according to instructions from the supplier. Prior to experiments, cells were cultured in complete RPMI 1640 (containing 10% heat inactivated FBS, penicillin (100 units/ml) and streptomycin (100 μg/ml)), and maintained in log phase prior to experimental setup. Prior to the experiment THP-1 were treated with PMA (Phorbol 12-myristate 13-acetate) (20 ng/ml) for 16-18 hours. On the day of the experiment the media was removed and adherent cells were detached with trypsin for 5 minutes. Cells were then harvested, washed with complete RPMI 1640, spun down, resuspended in RPMI 1640 (containing 2% heat inactivated FBS, penicillin (100 units/ml) and streptomycin (100 μg/ml). The cells were plated in a 384-well plate at a density of 50,000 cells/well (final assay volume 50 μl). Compounds were dissolved in dimethyl sulfoxide (DMSO) and added to the culture medium to achieve desired concentration (e.g. 100, 33, 11, 3.7, 1.2, 0.41, 0.14, 0.046, 0.015, 0.0051, 0.0017 μM). Cells were incubated with compounds for 1 hour and then stimulated with gramicidin (5 μM) (Enzo) for 2 hours. Cell free supernatant was collected and the production of IL-10 was evaluated by HTRF (cisbio). A vehicle only control was run concurrently with each experiment. Final DMSO concentration was 0.38%.
Compounds tested with protocols 1 and 2 provided IC50 values that are within the variability of the assay.
Tables 12 and 13 show the biological activity of compounds in hTHP-1 assay containing 2% bovine serum: <1 μM=“++++”; ≥1 and <5 μM=“+++”; ≥5 and <15 μM=“++”; ≥15 and <60 μM=“+”.

Row | Structure (SMILES) | IC50 [µM]
1 | CC(C)c1cc(F)cc(C(C)C)c1CC(=O)NS(=O)(=O)c1ccc(C(C)(C)O)cc1F [Example 54, 2-(4-fluoro-2,6-diisopropylphenyl)-N-(2-fluoro-4-(2-hydroxypropan-2-yl)phenylsulfonyl)acetamide] | < 1
2 | CC(C)c1cc(C#N)cc(C(C)C)c1CC(=O)NS(=O)(=O)c1ncc(C(C)O)s1 (centres unmarked) [Example 93, 2-(4-cyano-2,6-diisopropylphenyl)-N-(5-(1-hydroxyethyl)thiazol-2-ylsulfonyl)acetamide] | 1 to 5
3 | CC(C)(O)c1cnc(S(=O)(=O)NC(=O)Cc2c3c(c(F)c4c2CCC4)CCC3)s1 [Example 69, 2-(8-fluoro-1,2,3,5,6,7-hexahydros-indacen-4-yl)-N-(5-(2-hydroxypropan-2-yl)thiazol-2-ylsulfonyl)acetamide] | 15 to 60
4 | CC(C)c1cc(F)cc(C(C)C)c1CC(=O)NS(=O)(=O)c1cccc(S(C)(=O)=O)c1 [Example 59, 2-(4-fluoro-2,6-diisopropylphenyl)-N-(3-(methylsulfonyl)phenylsulfonyl)acetamide] | 15 to 60
5 | CC(C)c1cc(Cl)cc(C(C)C)c1CC(=O)NS(=O)(=O)c1ccn(C(C)C)n1 [Example 61, 2-(4-chloro-2,6-diisopropylphenyl)-N-(1-isopropyl-1H-pyrazol-3-ylsulfonyl)acetamide] | 5 to 15
6 | CC(C)c1cc(C#N)cc(C(C)C)c1CC(=O)NS(=O)(=O)c1ccc(C(C)(C)O)nc1 [Example 37, 2-(4-cyano-2,6-diisopropylphenyl)-N-(6-(2-hydroxypropan-2-yl)pyridin-3-ylsulfonyl)acetamide] | 5 to 15
7 | Cc1cc(C(C)(C)O)ccc1S(=O)(=O)NC(=O)Cc1c(C(C)C)cc(F)cc1C(C)C [Example 48, 2-(4-fluoro-2,6-diisopropylphenyl)-N-(4-(2-hydroxypropan-2-yl)-2-methylphenylsulfonyl)acetamide] | < 1
8 | Cc1cc(C(C)(C)O)cc(S(=O)(=O)NC(=O)Cc2c(C(C)C)cc(F)cc2C(C)C)c1 [Example 46, 2-(4-fluoro-2,6-diisopropylphenyl)-N-(3-(2-hydroxypropan-2-yl)-5-methylphenylsulfonyl)acetamide] | 1 to 5
9 | CC(C)c1cc(C#N)cc(C(C)C)c1CC(=O)NS(=O)(=O)c1ccc(C(C)(C)O)c(CO)c1 [Example 95, 2-(4-cyano-2,6-diisopropylphenyl)-N-(3-(hydroxymethyl)-4-(2-hydroxypropan-2-yl)phenylsulfonyl)acetamide] | 1 to 5
10 | CC(C)c1cccc(C(C)C)c1CC(=O)NS(=O)(=O)c1cc(-c2ccccc2)cc(C(C)(C)O)c1 [Example 23, 2-(2,6-diisopropylphenyl)-N-(5-(2-hydroxypropan-2-yl)biphenyl-3-ylsulfonyl)acetamide] | 1 to 5
11 | CC(C)(O)c1cnc(S(=O)(=O)NC(=O)Cc2c3c(c(Cl)c4c2CCC4)CCC3)s1 [Example 5, 2-(8-Chloro-1,2,3,5,6,7-hexahydros-indacen-4-yl)-N-(5-(2-hydroxypropan-2-yl)thiazol-2-ylsulfonyl)acetamide] | 15 to 60
12 | CC(C)c1cc(F)cc(C(C)C)c1CC(=O)NS(=O)(=O)c1cc(-c2ccncc2)cc(C(C)(C)O)c1 [Example 29, 2-(4-fluoro-2,6-diisopropylphenyl)-N-(3-(2-hydroxypropan-2-yl)-5-(pyridin-4-yl)phenylsulfonyl)acetamide] | 15 to 60
13 | CC(C)c1cccc(C(C)C)c1CC(=O)NS(=O)(=O)c1cc(-c2ccncc2)cc(C(C)(C)O)c1 [Example 22, 2-(2,6-diisopropylphenyl)-N-(3-(2-hydroxypropan-2-yl)-5-(pyridin-4-yl)phenylsulfonyl)acetamide] | 15 to 60
14 | CC(C)c1cccc(C(C)C)c1CC(=O)NS(=O)(=O)c1cc(C(C)(C)O)n(-c2ccccc2)n1 [Example 63, 2-(2,6-diisopropylphenyl)-N-(5-(2-hydroxypropan-2-yl)-1-phenyl-1H-pyrazol-3-ylsulfonyl)acetamide] | 5 to 15

Further lines, results first:

Row | IC50 [µM] | Structure (SMILES)
15 | 15 to 60 | CC(C)c1cc(F)cc(C(C)C)c1CC(=O)NS(=O)(=O)c1nc(C(C)(C)O)cs1 [Example 81, 2-(4-fluoro-2,6-diisopropylphenyl)-N-(4-(2-hydroxypropan-2-yl)thiazol-2-ylsulfonyl)acetamide]
16 | 1 to 5 | CC(C)c1cc(OC(F)(F)F)cc(C(C)C)c1CC(=O)NS(=O)(=O)c1ncc(C(C)(C)O)s1 [Example 85, 2-(2,6-diisopropyl-4-(trifluoromethoxy)phenyl)-N-(5-(2-hydroxypropan-2-yl)thiazol-2-ylsulfonyl)acetamide]
17 | 5 to 15 | CC(C)c1cnc(S(=O)(=O)NC(=O)Cc2c(C(C)C)cc(F)cc2C(C)C)s1 [Example 84, 2-(4-fluoro-2,6-diisopropylphenyl)-N-(5-isopropylthiazol-2-ylsulfonyl)acetamide]
18 | 1 to 5 | Cc1sc(S(=O)(=O)NC(=O)Cc2c(C(C)C)cc(F)cc2C(C)C)cc1C(C)(C)O [Example 17, 2-(4-fluoro-2,6-diisopropylphenyl)-N-(4-(2-hydroxypropan-2-yl)-5-methylthiophen-2-ylsulfonyl)acetamide]
19 | 1 to 5 | CC(C)c1cc(F)cc(C(C)C)c1CC(=O)NS(=O)(=O)c1ccc(C(C)(C)O)nc1 [Example 36, 2-(4-fluoro-2,6-diisopropylphenyl)-N-(6-(2-hydroxypropan-2-yl)pyridin-3-ylsulfonyl)acetamide]
20 | 5 to 15 | COC(C)(C)c1cnc(S(=O)(=O)NC(=O)Cc2c(C(C)C)cc(C#N)cc2C(C)C)s1 [Example 74, 2-(4-cyano-2,6-diisopropylphenyl)-N-(5-(2-methoxypropan-2-yl)thiazol-2-ylsulfonyl)acetamide]
21 | < 1 | CC(C)c1c(F)c(Cl)c(F)c(C(C)C)c1CC(=O)NS(=O)(=O)c1cc(C(C)(C)O)co1 [Example 20, 2-(4-chloro-3,5-difluoro-2,6-diisopropylphenyl)-N-(4-(2-hydroxypropan-2-yl)furan-2-ylsulfonyl)acetamide]
22 | 1 to 5 | CC(C)c1cc(F)cc(C(C)C)c1CC(=O)NS(=O)(=O)c1ncc(C(C)O)s1 (centres unmarked) [Example 92, 2-(4-fluoro-2,6-diisopropylphenyl)-N-(5-(1-hydroxyethyl)thiazol-2-ylsulfonyl)acetamide]
23 | 15 to 60 | CC(C)c1cc(Cl)cc(C(F)(F)F)c1CC(=O)NS(=O)(=O)c1ncc(C(C)(C)O)s1 [Example 79, 2-(4-chloro-2-isopropyl-6-(trifluoromethyl)phenyl)-N-(5-(2-hydroxypropan-2-yl)thiazol-2-ylsulfonyl)acetamide]
24 | 1 to 5 | CC(C)c1cc(F)cc(C(C)C)c1CC(=O)NS(=O)(=O)c1ncc(C(C)(C)O)s1 [Example 89, 2-(4-Fluoro-2,6-diisopropylphenyl)-N-(5-(2-hydroxypropan-2-yl)thiazol-2-ylsulfonyl)acetamide]
25 | 5 to 15 | CCc1cc(F)cc(CC)c1CC(=O)NS(=O)(=O)c1ncc(C(C)(C)O)s1 [Example 86, 2-(2,6-diethyl-4-fluorophenyl)-N-(5-(2-hydroxypropan-2-yl)thiazol-2-ylsulfonyl)acetamide]
26 | 1 to 5 | CC(C)c1c(F)cc(F)c(C(C)C)c1CC(=O)NS(=O)(=O)c1ncc(C(C)(C)O)s1 [Example 77, 2-(3,5-difluoro-2,6-diisopropylphenyl)-N-(5-(2-hydroxypropan-2-yl)thiazol-2-ylsulfonyl)acetamide]
